Data taken from US9284333B2, “Fused pyrroledicarboxamides and their use as pharmaceuticals” (SANOFI, priority 2012, dated 2016).

Molecular target: Human TASK-1 channels (Homo sapiens (Human), UniProt O14649)
Experiment: Determination of the activity on the TASK-1 channel in Xenopus oocytes (two-microelectrode voltage clamp)
Format: cell-based
Conditions: for IC50: human TASK-1 expressed in Xenopus oocytes, room temperature, read-out: IC50 value for TASK-1 inhibition; for inhibition at 5 µM: compound concentration 5 μM
How it was run: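 Xenopus oocytes were injected with human TASK-1 cRNA and recorded two days later by two-microelectrode voltage clamp, holding at −90 mV with 500 ms steps to 40 mV. Superfusion used ND96, pH 7.4, at room temperature, with rising compound concentrations; percentage inhibition of control current was fitted to a dose-response curve for IC50.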

Human TASK-1 channels, sequence (O14649 whole entry): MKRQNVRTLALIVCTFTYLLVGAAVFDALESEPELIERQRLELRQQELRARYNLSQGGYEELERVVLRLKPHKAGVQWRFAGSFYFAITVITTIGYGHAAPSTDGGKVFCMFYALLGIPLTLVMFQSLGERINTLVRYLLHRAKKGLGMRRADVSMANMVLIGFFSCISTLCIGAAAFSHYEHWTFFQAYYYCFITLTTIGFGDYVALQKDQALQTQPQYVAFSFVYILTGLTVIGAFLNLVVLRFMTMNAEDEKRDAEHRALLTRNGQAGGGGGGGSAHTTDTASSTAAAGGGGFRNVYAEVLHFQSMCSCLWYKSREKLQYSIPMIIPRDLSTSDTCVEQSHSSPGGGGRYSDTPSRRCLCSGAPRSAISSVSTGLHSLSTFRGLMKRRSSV

Question: For CC[C@@H](NC(=O)c1cc(C(=O)N2CCC[C@@H]2C(F)(F)F)n2c1COCC2)c1ccccc1 [16eu, 6-((R)-2-Trifluoromethyl-pyrrolidine-1-carbonyl)-3,4-dihydro-1H-pyrrolo[2,1-c][1,4]oxazine-8-carboxylic acid ((R)-1-phenyl-propyl)-amide], which IC50 is on record?
Answer: The IC50 was 49 nM.

Question: With CC[C@@H](NC(=O)c1cc(C(=O)N2CC[C@H](OCC3CC3)C2)n2c1COCC2)c1ccccc1 [16ev, 6-((S)-3-Cyclopropylmethoxy-pyrrolidine-1-carbonyl)-3,4-dihydro-1H-pyrrolo[2,1-c][1,4]oxazine-8-carboxylic acid ((R)-1-phenyl-propyl)-amide] as the compound, how does the IC50 read?
Answer: The IC50 was 330 nM.

Question: With CC[C@@H](NC(=O)c1cc(C(=O)N2CCCC2C(C)(C)O)n2c1COCC2)c1ccccc1 (stereo partly drawn) [16ew, 6-[2-(1-Hydroxy-1-methyl-ethyl)-pyrrolidine-1-carbonyl]-3,4-dihydro-1H-pyrrolo[2,1-c][1,4]oxazine-8-carboxylic acid ((R)-1-phenyl-propyl)-amide] as the compound, how does the IC50 read?
Answer: The IC50 was 3700 nM.

Question: CC[C@@H](NC(=O)c1cc(C(=O)N2CCCC2C(C)(C)C)n2c1COCC2)c1ccccc1 (stereo partly drawn) [16ex, 6-(2-tert-Butyl-pyrrolidine-1-carbonyl)-3,4-dihydro-1H-pyrrolo[2,1-c][1,4]oxazine-8-carboxylic acid ((R)-1-phenyl-propyl)-amide] was tested. Which IC50 did it give?
Answer: The IC50 was 180 nM.

Question: How did the IC50 turn out when CC[C@@H](NC(=O)c1cc(C(=O)N2CCC[C@@H]2C(C)O)n2c1COCC2)c1ccccc1 (stereo partly drawn) [16ey, 6-[(R)-2-(1-Hydroxy-ethyl)-pyrrolidine-1-carbonyl]-3,4-dihydro-1H-pyrrolo[2,1-c][1,4]oxazine-8-carboxylic acid ((R)-1-phenyl-propyl)-amide] was run?
Answer: The IC50 was 4700 nM.

Question: With CC[C@@H](NC(=O)c1cc(C(=O)N2CCC[C@@H]2C(C)OC)n2c1COCC2)c1ccccc1 (stereo partly drawn) [16ez, 6-[(R)-2-(1-Methoxy-ethyl)-pyrrolidine-1-carbonyl]-3,4-dihydro-1H-pyrrolo[2,1-c][1,4]oxazine-8-carboxylic acid ((R)-1-phenyl-propyl)-amide] as the compound, how does the IC50 read?
Answer: The IC50 was 500 nM.

Question: How did the IC50 turn out when CC[C@@H](NC(=O)c1cc(C(=O)N2CCC[C@@H]2C)n2c1COCC2)c1ccc(C(F)(F)F)cc1 [16f, 6-((S)-2-Methyl-pyrrolidine-1-carbonyl)-3,4-dihydro-1H-pyrrolo[2,1-c][1,4]oxazine-8-carboxylic acid [(R)-1-(4-trifluoromethyl-phenyl)-propyl]-amide] was run?
Answer: The IC50 was 68 nM.

Question: Which IC50 does the source give for CC[C@@H](NC(=O)c1cc(C(=O)N2CCCC2(C)C)n2c1COCC2)c1ccccc1 [16fb, 6-(2,2-Dimethyl-pyrrolidine-1-carbonyl)-3,4-dihydro-1H-pyrrolo[2,1-c][1,4]oxazine-8-carboxylic acid ((R)-1-phenyl-propyl)-amide] here?
Answer: Its IC50 is 130 nM.

Question: For CC[C@@H](NC(=O)c1cc(C(=O)N2CC3CC3C2)n2c1COCC2)c1ccccc1 (stereo partly drawn) [16fe, 6-(3-Aza-bicyclo[3.1.0]hexane-3-carbonyl)-3,4-dihydro-1H-pyrrolo[2,1-c][1,4]oxazine-8-carboxylic acid ((R)-1-phenyl-propyl)-amide], which IC50 is on record?
Answer: The IC50 was 150 nM.

Question: Which IC50 does the source give for CCOC(=O)[C@H]1CCCN1C(=O)c1cc(C(=O)N[C@H](CC)c2ccccc2)c2n1CCOC2 [16ff] here?
Answer: Its IC50 is 540 nM.

Question: With CC[C@@H](NC(=O)c1cc(C(=O)N2CC[C@H](OCC(C)C)C2)n2c1COCC2)c1ccccc1 [16fg, 6-((S)-3-Isobutoxy-pyrrolidine-1-carbonyl)-3,4-dihydro-1H-pyrrolo[2,1-c][1,4]oxazine-8-carboxylic acid ((R)-1-phenyl-propyl)-amide] as the compound, how does the IC50 read?
Answer: Its IC50 is 1300 nM.

Question: With CC[C@@H](NC(=O)c1cc(C(=O)N2CCC[C@@H]2CNC(C)=O)n2c1COCC2)c1ccccc1 [16fh, 6-[(R)-2-(Acetylamino-methyl)-pyrrolidine-1-carbonyl]-3,4-dihydro-1H-pyrrolo[2,1-c][1,4]oxazine-8-carboxylic acid ((R)-1-phenyl-propyl)-amide] as the compound, how does the IC50 read?
Answer: Its IC50 is 5200 nM.

Question: Which IC50 does the source give for CCOC(=O)C[C@H]1CCCN1C(=O)c1cc(C(=O)N[C@H](CC)c2ccccc2)c2n1CCOC2 [16fi, {(R)-1-[8-((R)-1-Phenyl-propylcarbamoyl)-3,4-dihydro-1H-pyrrolo[2,1-c][1,4]oxazine-6-carbonyl]-pyrrolidin-2-yl}-acetic acid ethyl ester] here?
Answer: The IC50 was 130 nM.

Question: With CC[C@@H](NC(=O)c1cc(C(=O)N2CCCC2C(O)c2ccccc2)n2c1COCC2)c1ccccc1 (stereo partly drawn) [16fj, 6-[2-(Hydroxy-phenyl-methyl)-pyrrolidine-1-carbonyl]-3,4-dihydro-1H-pyrrolo[2,1-c][1,4]oxazine-8-carboxylic acid ((R)-1-phenyl-propyl)-amide] as the compound, how does the inhibition at 5 µM read?
Answer: The inhibition at 5 µM was 89%.

Question: How did the IC50 turn out when CC[C@@H](NC(=O)c1cc(C(=O)N2CCC[C@@H]2c2ccccn2)n2c1COCC2)c1ccccc1 [16fk, 6-((R)-2-Pyridin-2-yl-pyrrolidine-1-carbonyl)-3,4-dihydro-1H-pyrrolo[2,1-c][1,4]oxazine-8-carboxylic acid ((R)-1-phenyl-propyl)-amide] was run?
Answer: The IC50 was 290 nM.

Question: For CC[C@@H](NC(=O)c1cc(C(=O)N2CCC[C@@H]2c2ccc(OC)nc2)n2c1COCC2)c1ccccc1 [16fl, 6-[(R)-2-(6-Methoxy-pyridin-3-yl)-pyrrolidine-1-carbonyl]-3,4-dihydro-1H-pyrrolo[2,1-c][1,4]oxazine-8-carboxylic acid ((R)-1-phenyl-propyl)-amide], which IC50 is on record?
Answer: Its IC50 is 240 nM.

Question: Which IC50 does the source give for CC[C@@H](NC(=O)c1cc(C(=O)N2CCC[C@@H]2C#N)n2c1COCC2)c1ccccc1 [16fm, 6-((R)-2-Cyano-pyrrolidine-1-carbonyl)-3,4-dihydro-1H-pyrrolo[2,1-c][1,4]oxazine-8-carboxylic acid ((R)-1-phenyl-propyl)-amide] here?
Answer: Its IC50 is 210 nM.

Question: CC[C@@H](NC(=O)c1cc(C(=O)N2CC[C@H](F)C2)n2c1COCC2)c1ccccc1 [16fn, 6-((S)-3-Fluoro-pyrrolidine-1-carbonyl)-3,4-dihydro-1H-pyrrolo[2,1-c][1,4]oxazine-8-carboxylic acid ((R)-1-phenyl-propyl)-amide] was tested. Which IC50 did it give?
Answer: Its IC50 is 160 nM.

Question: With CC[C@@H](NC(=O)c1cc(C(=O)N2CCC[C@@H]2CC(=O)OC(C)C)n2c1COCC2)c1ccccc1 [16fo, {(R)-1-[8-((R)-1-Phenyl-propylcarbamoyl)-3,4-dihydro-1H-pyrrolo[2,1-c][1,4]oxazine-6-carbonyl]-pyrrolidin-2-yl}-acetic acid isopropyl ester] as the compound, how does the IC50 read?
Answer: The IC50 was 230 nM.

Question: How did the IC50 turn out when CC[C@@H](NC(=O)c1cc(C(=O)N2CCC[C@@H]2c2cnccn2)n2c1COCC2)c1ccccc1 [16fp, 6-((R)-2-Pyrazin-2-yl-pyrrolidine-1-carbonyl)-3,4-dihydro-1H-pyrrolo[2,1-c][1,4]oxazine-8-carboxylic acid ((R)-1-phenyl-propyl)-amide] was run?
Answer: Its IC50 is 1900 nM.

Question: How did the IC50 turn out when CC[C@@H](NC(=O)c1cc(C(=O)N2CCN(c3ccccn3)CC2)n2c1COCC2)c1ccccc1 [16fq, 6-(4-Pyridin-2-yl-piperazine-1-carbonyl)-3,4-dihydro-1H-pyrrolo[2,1-c][1,4]oxazine-8-carboxylic acid ((R)-1-phenyl-propyl)-amide] was run?
Answer: Its IC50 is 1100 nM.

Question: CC[C@@H](NC(=O)c1cc(C(=O)N2CCCC2CN2CCOCC2)n2c1COCC2)c1ccccc1 (stereo partly drawn) [16fr, 6-(2-Morpholin-4-ylmethyl-pyrrolidine-1-carbonyl)-3,4-dihydro-1H-pyrrolo[2,1-c][1,4]oxazine-8-carboxylic acid ((R)-1-phenyl-propyl)-amide] was tested. Which IC50 did it give?
Answer: Its IC50 is 1300 nM.

Question: For CC[C@@H](NC(=O)c1cc(C(=O)N2CCN(c3ccccn3)C[C@@H]2C)n2c1COCC2)c1ccccc1 [16fs, 6-((S)-2-Methyl-4-pyridin-2-yl-piperazine-1-carbonyl)-3,4-dihydro-1H-pyrrolo[2,1-c][1,4]oxazine-8-carboxylic acid ((R)-1-phenyl-propyl)-amide], which IC50 is on record?
Answer: Its IC50 is 670 nM.

Question: Which IC50 does the source give for CC[C@@H](NC(=O)c1cc(C(=O)N2CCN(CCC(F)(F)F)C[C@@H]2C)n2c1COCC2)c1ccccc1 [16ft, 6-[(S)-2-Methyl-4-(3,3,3-trifluoro-propyl)-piperazine-1-carbonyl]-3,4-dihydro-1H-pyrrolo[2,1-c][1,4]oxazine-8-carboxylic acid ((R)-1-phenyl-propyl)-amide] here?
Answer: Its IC50 is 3600 nM.

Question: How did the IC50 turn out when CC[C@@H](NC(=O)c1cc(C(=O)N2CC[C@H](Oc3ccc(F)cc3)C2)n2c1COCC2)c1ccccc1 [16fu, 6-[(S)-3-(4-Fluoro-phenoxy)-pyrrolidine-1-carbonyl]-3,4-dihydro-1H-pyrrolo[2,1-c][1,4]oxazine-8-carboxylic acid ((R)-1-phenyl-propyl)-amid] was run?
Answer: Its IC50 is 240 nM.

Question: Which IC50 does the source give for CC[C@@H](NC(=O)c1cc(C(=O)N2CCCC2c2ccn(C)n2)n2c1COCC2)c1ccccc1 (stereo partly drawn) [16fv, 6-[2-(1-Methyl-1H-pyrazol-3-yl)-pyrrolidine-1-carbonyl]-3,4-dihydro-1H-pyrrolo[2,1-c][1,4]oxazine-8-carboxylic acid ((R)-1-phenyl-propyl)-amide] here?
Answer: The IC50 was 920 nM.

Question: For CC[C@@H](NC(=O)c1cc(C(=O)N2CCCC2C(C)n2cccn2)n2c1COCC2)c1ccccc1 (stereo partly drawn) [16fw, 6-[2-(1-Pyrazol-1-yl-ethyl)-pyrrolidine-1-carbonyl]-3,4-dihydro-1H-pyrrolo[2,1-c][1,4]oxazine-8-carboxylic acid ((R)-1-phenyl-propyl)-amide], which IC50 is on record?
Answer: The IC50 was 420 nM.

Question: How did the inhibition at 5 µM turn out when C#CC1CCCN1C(=O)c1cc(C(=O)N[C@H](CC)c2ccccc2)c2n1CCOC2 (stereo partly drawn) [16fx, 6-(2-Ethynyl-pyrrolidine-1-carbonyl)-3,4-dihydro-1H-pyrrolo[2,1-c][1,4]oxazine-8-carboxylic acid ((R)-1-phenyl-propyl)-amide] was run?
Answer: The inhibition at 5 µM was 90%.

Question: With CC[C@@H](NC(=O)c1cc(C(=O)N2CC[C@@H](C#N)C2)n2c1COCC2)c1ccccc1 [16fy, 6-((R)-3-Cyano-pyrrolidine-1-carbonyl)-3,4-dihydro-1H-pyrrolo[2,1-c][1,4]oxazine-8-carboxylic acid ((R)-1-phenyl-propyl)-amide] as the compound, how does the inhibition at 5 µM read?
Answer: Its inhibition at 5 µM is 59%.

Question: How did the IC50 turn out when CC[C@@H](NC(=O)c1cc(C(=O)N2CCCC2c2ncccn2)n2c1COCC2)c1ccccc1 (stereo partly drawn) [16fz, 6-(2-Pyrimidin-2-yl-pyrrolidine-1-carbonyl)-3,4-dihydro-1H-pyrrolo[2,1-c][1,4]oxazine-8-carboxylic acid ((R)-1-phenyl-propyl)-amide] was run?
Answer: Its IC50 is 5100 nM.
